Assay results reported in patent US20230241226A1, “COMPOUNDS FOR TARGETED DEGRADATION OF CARRIER PROTEINS AND USES THEREOF” (CeMM - Forschungszentrum für Molekulare Medizin GmbH, priority 2019, published 2023).

Legend:
Strep/HA SLC9A4 = molecular target: T1, Strep/HA SLC9A4 (Homo sapiens, UniProt Q6AI14); assay: Selectivity across SLC9 family: degradation of exogenous Strep/HA SLC9A4; format: cell-based; conditions: HAP1; 250 or 750 nM; 16 hours
T1 construct: expressed in transfected cells; host or cells: HAP1 (lentiviral, pRRL Strep-HA; cDNA synthesized by Genescript)
T1 sequence (Q6AI14 whole entry): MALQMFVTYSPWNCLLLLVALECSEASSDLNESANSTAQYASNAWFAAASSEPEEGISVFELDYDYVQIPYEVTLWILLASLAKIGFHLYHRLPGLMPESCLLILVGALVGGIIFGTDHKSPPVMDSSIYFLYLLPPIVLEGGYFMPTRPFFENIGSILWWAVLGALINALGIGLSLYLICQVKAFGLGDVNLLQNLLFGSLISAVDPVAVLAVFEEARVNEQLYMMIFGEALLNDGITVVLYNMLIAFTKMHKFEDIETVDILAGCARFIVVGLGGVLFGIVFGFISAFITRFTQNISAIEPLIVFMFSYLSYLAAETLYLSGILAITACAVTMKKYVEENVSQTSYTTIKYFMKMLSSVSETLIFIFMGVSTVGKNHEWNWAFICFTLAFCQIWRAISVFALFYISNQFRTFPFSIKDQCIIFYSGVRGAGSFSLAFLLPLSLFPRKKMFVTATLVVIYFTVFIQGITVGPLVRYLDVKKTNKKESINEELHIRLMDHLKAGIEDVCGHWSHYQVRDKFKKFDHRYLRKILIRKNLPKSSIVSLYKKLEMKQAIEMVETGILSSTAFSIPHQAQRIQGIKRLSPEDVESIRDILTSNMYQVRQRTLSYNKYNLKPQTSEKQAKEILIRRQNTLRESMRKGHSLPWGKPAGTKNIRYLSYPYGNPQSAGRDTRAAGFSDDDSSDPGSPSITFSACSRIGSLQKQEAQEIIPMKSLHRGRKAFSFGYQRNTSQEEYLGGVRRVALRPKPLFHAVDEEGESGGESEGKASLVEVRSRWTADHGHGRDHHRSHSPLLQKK
Method: (§1) (E) Selectivity of d9A1-2 was tested across HAP1 cell lines expressing Strep/HASLC9A1, 9A4, 9A5, 9A8, 9A2, 9B2, 9A6, 9A9, and 9A3. Cells were treated with varying concentrations of d9A1-2 for 16 hours, after which degradation of the exogenous SLCs was monitored.
(§2) SLC1A5, SLC2A1, SLC2A3, SLC16A1, SLC38A1, SLC38A2 were obtained as gateway-compatible pENTR/pDONR vectors from the Harvard PlasmID Repository. SLC39A7 was obtained from Dharmacon, GE Healthcare. The following vectors were synthesized by Genescript: SLC4A4, SLC7A3, SLC38A9, SLC25A1, SLC9A1, SLC9A2, SLC9A3, SLC9A4, SLC9A5, SLC9A6, SLC9A7, SLC9A8, and SLC9B2. SLC30A9, SLC33A1, SLC35B2, SLC25A26, and MTCH2 were a gift from the RESOLUTE consortium. cDNAs were transferred into gateway-compatible lentiviral expression vectors: pLX305 dTAG vectors (Addgene #91797/8) or pRRL Strep-HA (described previously43, EF1a promotor driven expression) using LR recombination (ThermoFisher Scientific). […]
(§3) For immunoblotting, whole cell extracts were prepared using RIPA lysis buffer (25 mM Tris/HCl pH 7.6, 150 mM NaCl, 1% NP-40, 1% sodium deoxycholate, 0.1% SDS, EDTA-free protease inhibitor (Roche) and phosphatase inhibitors 2+3 (Sigma- Aldrich)). […] Protein extracts were quantified and normalized using the BCA assay (Thermo Scientific). […]

Strep/HA SLC9A8 = molecular target: T2, Strep/HA SLC9A8 (Homo sapiens, UniProt Q9Y2E8); assay: Selectivity across SLC9 family: degradation of exogenous Strep/HA SLC9A8; format: cell-based; conditions: HAP1; 250 or 750 nM; 16 hours
T2 construct: expressed in transfected cells; host or cells: HAP1 (lentiviral, pRRL Strep-HA; cDNA synthesized by Genescript)
T2 sequence (Q9Y2E8 whole entry): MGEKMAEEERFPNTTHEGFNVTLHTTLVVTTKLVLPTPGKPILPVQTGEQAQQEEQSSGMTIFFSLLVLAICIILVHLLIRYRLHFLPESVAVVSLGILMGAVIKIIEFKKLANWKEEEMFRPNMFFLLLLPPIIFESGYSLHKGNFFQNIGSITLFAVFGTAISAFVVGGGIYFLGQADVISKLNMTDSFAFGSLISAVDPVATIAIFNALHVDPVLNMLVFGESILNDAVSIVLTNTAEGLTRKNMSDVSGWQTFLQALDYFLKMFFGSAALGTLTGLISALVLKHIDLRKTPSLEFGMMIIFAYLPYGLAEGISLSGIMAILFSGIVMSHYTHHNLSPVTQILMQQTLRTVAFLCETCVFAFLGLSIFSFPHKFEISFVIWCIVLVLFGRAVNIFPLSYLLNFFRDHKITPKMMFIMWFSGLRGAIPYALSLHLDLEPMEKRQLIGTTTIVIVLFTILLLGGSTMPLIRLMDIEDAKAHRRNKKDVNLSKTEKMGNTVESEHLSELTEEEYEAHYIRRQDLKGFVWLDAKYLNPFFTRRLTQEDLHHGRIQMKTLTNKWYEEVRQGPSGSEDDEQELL
Method: as §1, §2, §3

[1] = test system: Peripheral blood mononuclear cells (PBMCs); assay: Cellular viability assay (CellTiter-Glo), dose curve, FIG. 9; format: cell-based, human; conditions: PBMCs of healthy donors and patients (AML, multiple myeloma, B cell lymphoma, Hodgkin's lymphoma, CLL), 72 hours
Method: Relative viability of Peripheral blood mononuclear cells (PBMCs) after treatment with the d9A1-2 molecule PBMCs were isolated from healthy donors and patients with acute myeloid leukemia, multiple myeloma, B cell lymphoma and Hodgkin’s lymphoma, chronic lymphocytic leukeumia and treated with a dose curve of d9A1-2. Viability was assayed using the CellTiter-Glo assay, 72 hours post treatment.
Peripheral blood mononuclear cells (PBMCs) were isolated using Lymphoprep (Stem Cell Technologies) from healthy donors and patients with acute myeloid leukemia, multiple myeloma, B cell lymphoma, Hodgkin’s lymphoma, chronic lymphocytic leukeumia. For comparison of different samples, compounds were transferred on black 384-well plates using an acoustic liquid handler (Echo, Labcyte). Cells were seeded in these plates at densities of 20,000 cells per well in RPMI media (Gibco), supplemented with 10% fetal calf serum (Gibco). Viability was measured after 72 hours using the CellTiter-Glo assay (Promega) on a plate reader (SpectraMax i3x, Molecular Probes). All measurements were done in technical quadruplicates. Toxicity achieved by treatment with d9A1-2 was normalized to the reference controls. Dose response fitting curves were obtained and plotted using GraphPad Prism V8. Data is presented as mean +/- SD.

Strep/HA SLC9A9 = molecular target: T3, Strep/HA SLC9A9 (Homo sapiens, UniProt Q8IVB4); assay: Selectivity across SLC9 family: degradation of exogenous Strep/HA SLC9A9; format: cell-based; conditions: HAP1; 250 or 750 nM; 16 hours
T3 construct: expressed in transfected cells; host or cells: HAP1 (lentiviral, pRRL Strep-HA)
T3 sequence (Q8IVB4 whole entry): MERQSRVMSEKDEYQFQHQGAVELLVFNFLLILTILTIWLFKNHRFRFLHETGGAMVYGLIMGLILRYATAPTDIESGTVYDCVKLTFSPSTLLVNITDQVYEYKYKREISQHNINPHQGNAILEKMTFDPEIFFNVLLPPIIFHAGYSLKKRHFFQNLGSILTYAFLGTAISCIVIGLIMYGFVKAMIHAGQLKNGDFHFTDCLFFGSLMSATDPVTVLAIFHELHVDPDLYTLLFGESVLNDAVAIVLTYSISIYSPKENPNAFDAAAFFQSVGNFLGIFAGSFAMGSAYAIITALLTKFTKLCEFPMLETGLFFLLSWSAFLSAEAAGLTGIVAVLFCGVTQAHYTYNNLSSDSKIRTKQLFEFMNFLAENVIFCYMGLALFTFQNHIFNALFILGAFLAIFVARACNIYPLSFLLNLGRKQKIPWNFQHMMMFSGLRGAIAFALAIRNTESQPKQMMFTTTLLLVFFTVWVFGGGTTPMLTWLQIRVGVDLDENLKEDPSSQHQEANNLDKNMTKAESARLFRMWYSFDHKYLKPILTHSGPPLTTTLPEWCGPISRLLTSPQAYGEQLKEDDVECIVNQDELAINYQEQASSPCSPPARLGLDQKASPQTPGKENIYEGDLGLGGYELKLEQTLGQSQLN
Method: as §1, §2, §3

dTAG-HA SLC39A7 = molecular target: T4, dTAG-HA SLC39A7 (Homo sapiens, UniProt Q92504+Q96SW2); assay: Targeted degradation of dTAG-tagged SLC39A7 (western blot); format: cell-based; conditions: HAP1, 0.5 µM, 24, 48 or 72 hours
T4 construct: expressed in transfected cells
T4 sequence (Q92504 with tags, fused parts or gaps): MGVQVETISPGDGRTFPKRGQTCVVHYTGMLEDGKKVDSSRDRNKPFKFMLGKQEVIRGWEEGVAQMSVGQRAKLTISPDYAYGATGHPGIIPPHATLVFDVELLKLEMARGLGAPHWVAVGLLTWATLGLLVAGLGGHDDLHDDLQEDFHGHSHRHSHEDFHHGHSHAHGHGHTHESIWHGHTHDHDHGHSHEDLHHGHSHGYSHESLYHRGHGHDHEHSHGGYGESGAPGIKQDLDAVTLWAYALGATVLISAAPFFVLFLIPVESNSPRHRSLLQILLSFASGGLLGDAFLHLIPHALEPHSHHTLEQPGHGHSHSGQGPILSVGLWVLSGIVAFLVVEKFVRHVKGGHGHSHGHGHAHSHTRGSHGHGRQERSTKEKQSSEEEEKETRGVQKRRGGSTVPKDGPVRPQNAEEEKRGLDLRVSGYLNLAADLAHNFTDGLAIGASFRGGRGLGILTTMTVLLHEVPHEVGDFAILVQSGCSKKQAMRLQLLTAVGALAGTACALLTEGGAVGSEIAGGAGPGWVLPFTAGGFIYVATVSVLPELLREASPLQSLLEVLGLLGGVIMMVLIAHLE
T4 sequence (Q96SW2 whole entry): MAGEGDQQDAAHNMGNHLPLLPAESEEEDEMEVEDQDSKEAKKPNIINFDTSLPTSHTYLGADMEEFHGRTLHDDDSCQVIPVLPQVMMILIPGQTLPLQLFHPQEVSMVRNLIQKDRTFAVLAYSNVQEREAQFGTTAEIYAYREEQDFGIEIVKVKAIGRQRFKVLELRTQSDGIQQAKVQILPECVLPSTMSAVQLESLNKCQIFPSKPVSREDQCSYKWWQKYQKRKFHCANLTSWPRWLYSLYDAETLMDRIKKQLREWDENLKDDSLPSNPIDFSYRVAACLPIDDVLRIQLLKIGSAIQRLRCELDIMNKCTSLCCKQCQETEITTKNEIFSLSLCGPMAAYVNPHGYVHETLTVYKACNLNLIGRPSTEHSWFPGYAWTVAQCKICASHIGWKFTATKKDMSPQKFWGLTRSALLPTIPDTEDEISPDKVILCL
T4 sequence (Q16531 whole entry partner): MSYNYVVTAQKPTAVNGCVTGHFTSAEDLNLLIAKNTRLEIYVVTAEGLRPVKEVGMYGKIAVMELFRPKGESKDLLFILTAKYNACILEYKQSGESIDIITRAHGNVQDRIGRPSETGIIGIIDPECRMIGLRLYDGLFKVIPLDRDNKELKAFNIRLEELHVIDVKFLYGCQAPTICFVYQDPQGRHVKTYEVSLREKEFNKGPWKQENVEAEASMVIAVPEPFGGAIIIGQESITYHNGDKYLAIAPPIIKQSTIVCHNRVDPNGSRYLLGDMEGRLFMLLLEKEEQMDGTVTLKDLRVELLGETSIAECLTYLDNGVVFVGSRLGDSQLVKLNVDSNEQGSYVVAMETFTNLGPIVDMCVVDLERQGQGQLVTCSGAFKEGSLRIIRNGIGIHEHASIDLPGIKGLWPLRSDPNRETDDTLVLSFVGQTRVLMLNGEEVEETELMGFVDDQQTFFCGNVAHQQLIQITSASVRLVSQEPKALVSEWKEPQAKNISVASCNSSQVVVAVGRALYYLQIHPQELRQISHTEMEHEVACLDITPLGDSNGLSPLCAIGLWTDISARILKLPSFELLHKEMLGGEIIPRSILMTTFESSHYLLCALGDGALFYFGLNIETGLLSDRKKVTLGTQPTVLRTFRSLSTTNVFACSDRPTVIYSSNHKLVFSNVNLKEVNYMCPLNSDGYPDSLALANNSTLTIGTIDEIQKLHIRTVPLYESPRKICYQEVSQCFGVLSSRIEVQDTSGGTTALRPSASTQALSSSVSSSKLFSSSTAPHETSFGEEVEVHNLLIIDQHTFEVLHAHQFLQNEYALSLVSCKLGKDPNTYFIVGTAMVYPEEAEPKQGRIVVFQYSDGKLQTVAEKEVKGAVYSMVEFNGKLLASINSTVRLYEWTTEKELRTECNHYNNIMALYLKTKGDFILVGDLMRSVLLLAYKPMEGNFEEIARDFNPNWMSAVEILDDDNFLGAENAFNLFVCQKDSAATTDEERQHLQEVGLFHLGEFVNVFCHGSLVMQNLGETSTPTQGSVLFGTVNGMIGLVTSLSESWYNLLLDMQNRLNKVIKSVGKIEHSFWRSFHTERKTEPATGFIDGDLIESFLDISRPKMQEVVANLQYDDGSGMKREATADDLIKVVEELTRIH
Method: (C)HAP1 cells expressing dTAG-HA SLC1A5, 2A3, 30A9, 35B2, MTCH2, and 33A1 were treated for 24 hours with 0.5 µM of dTAG7 or dTAG13, as indicated. HAP1 cells expressing dTAG-HA SLC2A1 and 16A1 were treated for 24 hrs with 0.5 µM of dTAG7. HAP1 cell lines expressing dTAG-HA SLC39A7, dTAG-HA SLC4A4, and SLC7A3-dTAG-HA were treated for 48 hrs with 0.5 µM of dTAG13.
SLC1A5, SLC2A1, SLC2A3, SLC16A1, SLC38A1, SLC38A2 were obtained as gateway-compatible pENTR/pDONR vectors from the Harvard PlasmID Repository. SLC39A7 was obtained from Dharmacon, GE Healthcare. The following vectors were synthesized by Genescript: SLC4A4, SLC7A3, SLC38A9, SLC25A1, SLC9A1, SLC9A2, SLC9A3, SLC9A4, SLC9A5, SLC9A6, SLC9A7, SLC9A8, and SLC9B2. […]
as §3
SLCs were ectopically expressed as fusions to a mutated FKBP domain, also known as the dTAG system. […]

Compound | degradation of exogenous SLC9A4 (Strep/HA SLC9A4) | abundance of exogenous SLC9A8 (Strep/HA SLC9A8) | toxicity (relative viability) in patient versus healthy donor PBMCs [1] | abundance of exogenous SLC9A9 (Strep/HA SLC9A9) | reversibility of degradation of the target SLC (dTAG-HA SLC39A7)
Cc1cc(-c2ccc(C(=O)NCCOCCOCCOCCOCCNc3cccc4c3C(=O)N(C3CCC(=O)NC3=O)C4=O)cc2N2CCC(c3[nH]cnc3C)CC2)ccc1F (centres unmarked) [d9A1-2] | prompted degradation | not significantly affected | more toxic in patient samples, than in healthy donor samples | not significantly affected | –
CC[C@H](C(=O)N1CCCC[C@H]1C(=O)O[C@H](CCc1ccc(OC)c(OC)c1)c1ccccc1OCC(=O)NCCCOCCOCCOCCCNC(=O)COc1cccc2c1C(=O)N(C1CCC(=O)NC1=O)C2=O)c1cc(OC)c(OC)c(OC)c1 (some centres unmarked) [dTAG7] | – | – | – | – | reversible degradation
